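All cell lines were grown in 96-well plates and treated with compound for 48 hours. GI50 is the concentration that inhibits growth by half.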 Activity calls are given as the source filed them. No stated cut-off is given here; in the data, active = GI50 up to about 1.1 µM and inactive = higher.
Tests used:
Test in all cases: NCI anticancer screen, dose series, 48 h
786-0 = system: 786-0
CAKI-1 = system: CAKI-1
COLO 205 = system: COLO 205
DU-145 = system: DU-145
HCT-15 = system: HCT-15
HL-60 = system: HL-60
HOP-62 = system: HOP-62
HOP-92 = system: HOP-92
Hs-578T = system: Hs-578T
K562 = system: K562
LOX IMVI = system: LOX IMVI
Malme-3M = system: Malme-3M
NCI-H226 = system: NCI-H226
NCI-H460 = system: NCI-H460
SF-295 = system: SF-295
SK-MEL-2 = system: SK-MEL-2
SNB-75 = system: SNB-75
SW-620 = system: SW-620
UACC-62 = system: UACC-62
UO-31 = system: UO-31

With `COc1nc(Cl)c(Cl)c(Cl)n1.COc1nc(Cl)nc(Cl)c1Cl` the GI50 (786-0) was 14.2 µM (inactive), the GI50 (CAKI-1) was 0.0254 µM (active) and the GI50 (COLO 205) was 14.2 µM (inactive). The GI50 (DU-145) was 2.35 µM (inactive), the GI50 (HCT-15) was 2.19 µM and the GI50 (HL-60) was 5.47 µM (inactive). The GI50 (HOP-62) was 2.92 µM (inactive), the GI50 (HOP-92) was 2.31 µM (inactive) and the GI50 (Hs-578T) was 3.91 µM (inactive). The GI50 (K562) was 0.859 µM (active), the GI50 (LOX IMVI) was 2.66 µM (inactive) and the GI50 (Malme-3M) was 10.6 µM (inactive). The GI50 (NCI-H226) was 42.5 µM (inactive), the GI50 (NCI-H460) was 5.6 µM (inactive) and the GI50 (SF-295) was 7.16 µM (inactive). The GI50 (SK-MEL-2) was 7.62 µM (inactive), the GI50 (SNB-75) was 10.3 µM (inactive) and the GI50 (SW-620) was 3.62 µM (inactive). The GI50 (UACC-62) was 8.93 µM (inactive) and the GI50 (UO-31) was 0.893 µM (active).
In the case of `COc1cc(/C=N/c2ccccn2)cc(OC)c1OC`, the GI50 (786-0) is reported as > 100 µM (inactive), the GI50 (CAKI-1) is reported as > 100 µM (inactive) and the GI50 (COLO 205) is reported as > 100 µM (inactive). The GI50 (DU-145) was > 100 µM (inactive), the GI50 (HCT-15) was over 82.6 µM and the GI50 (HL-60) was 1.87 µM (inactive). For the same molecule, the GI50 (HOP-62) was > 100 µM (inactive), the GI50 (HOP-92) was > 100 µM (inactive) and the GI50 (Hs-578T) was > 100 µM (inactive). The GI50 (K562) was > 100 µM (inactive), the GI50 (LOX IMVI) was > 100 µM (inactive) and the GI50 (Malme-3M) was > 100 µM (inactive). For the same molecule, the GI50 (NCI-H226) was > 100 µM (inactive), the GI50 (NCI-H460) was > 100 µM (inactive) and the GI50 (SF-295) was > 76.9 µM (inactive). For the same molecule, the GI50 (SK-MEL-2) was > 100 µM (inactive), the GI50 (SNB-75) was > 100 µM (inactive) and the GI50 (SW-620) was > 100 µM (inactive). For the same molecule, the GI50 (UACC-62) was > 100 µM (inactive) and the GI50 (UO-31) was > 100 µM (inactive).
`O=C(O[C@@H](/C=C/c1ccccc1)P1(=O)N(Cc2ccccc2)[C@H]2CCCC[C@@H]2N1Cc1ccccc1)c1ccccc1` was tested, and the GI50 (786-0) was 4.32 µM (inactive), the GI50 (CAKI-1) was 2.66 µM (inactive) and the GI50 (COLO 205) was 1.7 µM (inactive). For the same molecule, the GI50 (DU-145) was 6.21 µM (inactive), the GI50 (HCT-15) was 3.28 µM and the GI50 (HL-60) was 2.39 µM (inactive). For the same molecule, the GI50 (HOP-62) was 2.82 µM (inactive), the GI50 (HOP-92) was 2.86 µM (inactive) and the GI50 (Hs-578T) was 13.6 µM (inactive). For the same molecule, the GI50 (K562) was 3.47 µM (inactive), the GI50 (LOX IMVI) was 3.54 µM (inactive) and the GI50 (Malme-3M) was 4.2 µM (inactive). For the same molecule, the GI50 (NCI-H226) was 2.79 µM (inactive), the GI50 (NCI-H460) was 2.01 µM (inactive) and the GI50 (SF-295) was 3.15 µM (inactive). For the same molecule, the GI50 (SK-MEL-2) was 1.85 µM (inactive), the GI50 (SNB-75) was 5.6 µM (inactive) and the GI50 (SW-620) was 3.69 µM (inactive). The GI50 (UACC-62) was 2.12 µM (inactive) and the GI50 (UO-31) was 3.01 µM (inactive).
With `Cc1ccc2cccc(-c3cccc4ccccc34)c2n1` the GI50 (786-0) was 27.4 µM (inactive), the GI50 (CAKI-1) was 26.6 µM (inactive) and the GI50 (COLO 205) was 23.7 µM (inactive). The GI50 (DU-145) was 36.8 µM (inactive), the GI50 (HCT-15) was 21.7 µM and the GI50 (HL-60) was 3.33 µM (inactive). The GI50 (HOP-62) was 25.2 µM (inactive), the GI50 (HOP-92) was 12.6 µM (inactive) and the GI50 (Hs-578T) was 23.5 µM (inactive). The GI50 (K562) was 4.66 µM (inactive), the GI50 (LOX IMVI) was 14.9 µM (inactive) and the GI50 (Malme-3M) was 4.63 µM (inactive). For the same molecule, the GI50 (NCI-H226) was 20.5 µM (inactive), the GI50 (NCI-H460) was 27.5 µM (inactive) and the GI50 (SF-295) was 22.9 µM (inactive). The GI50 (SK-MEL-2) was 15 µM (inactive), the GI50 (SNB-75) was 8.87 µM (inactive) and the GI50 (SW-620) was 25.2 µM (inactive). The GI50 (UACC-62) was 19.5 µM (inactive) and the GI50 (UO-31) was 14.3 µM (inactive).
`CN(C)c1ccc(/C=C(\NC(=O)c2ccccc2)C(=O)NCC(=O)O)cc1` was tested, and the GI50 (786-0) was > 100 µM (inactive), the GI50 (CAKI-1) was > 100 µM (inactive) and the GI50 (COLO 205) was > 100 µM (inactive). The GI50 (DU-145) was > 100 µM (inactive), the GI50 (HCT-15) was over 100 µM and the GI50 (HL-60) was 0.0755 µM (active). For the same molecule, the GI50 (HOP-62) was > 100 µM (inactive), the GI50 (HOP-92) was > 100 µM (inactive) and the GI50 (Hs-578T) was > 100 µM (inactive). For the same molecule, the GI50 (K562) was > 100 µM (inactive), the GI50 (LOX IMVI) was > 100 µM (inactive) and the GI50 (Malme-3M) was > 100 µM (inactive). For the same molecule, the GI50 (NCI-H226) was > 100 µM (inactive), the GI50 (NCI-H460) was > 100 µM (inactive) and the GI50 (SF-295) was > 100 µM (inactive). The GI50 (SK-MEL-2) was > 100 µM (inactive), the GI50 (SNB-75) was > 100 µM (inactive) and the GI50 (SW-620) was > 100 µM (inactive). The GI50 (UACC-62) was > 100 µM (inactive) and the GI50 (UO-31) was > 100 µM (inactive).
With `Cc1nc2c(=O)n(-c3ccccc3)c3ccccc3c2o1` the GI50 (786-0) was > 100 µM (inactive), the GI50 (CAKI-1) was > 100 µM (inactive) and the GI50 (COLO 205) was > 100 µM (inactive). For the same molecule, the GI50 (DU-145) was > 100 µM (inactive), the GI50 (HCT-15) was over 100 µM and the GI50 (HL-60) was > 100 µM (inactive). For the same molecule, the GI50 (HOP-62) was > 100 µM (inactive), the GI50 (HOP-92) was > 100 µM (inactive) and the GI50 (Hs-578T) was > 100 µM (inactive). For the same molecule, the GI50 (K562) was > 100 µM (inactive), the GI50 (LOX IMVI) was > 100 µM (inactive) and the GI50 (Malme-3M) was > 100 µM (inactive). For the same molecule, the GI50 (NCI-H226) was > 100 µM (inactive), the GI50 (NCI-H460) was > 100 µM (inactive) and the GI50 (SF-295) was > 100 µM (inactive). The GI50 (SK-MEL-2) was > 100 µM (inactive), the GI50 (SNB-75) was > 100 µM (inactive) and the GI50 (SW-620) was > 100 µM (inactive). For the same molecule, the GI50 (UACC-62) was > 100 µM (inactive) and the GI50 (UO-31) was > 100 µM (inactive).
With `O=C1NC(SSC2=NNC3(C(=O)N2)c2ccccc2-c2ccccc23)=NNC12c1ccccc1-c1ccccc12` the GI50 (786-0) was > 10 µM (inactive), the GI50 (CAKI-1) was > 10 µM (inactive) and the GI50 (COLO 205) was > 10 µM (inactive). The GI50 (DU-145) was > 10 µM (inactive), the GI50 (HCT-15) was over 10 µM and the GI50 (HL-60) was > 10 µM (inactive). The GI50 (HOP-62) was > 10 µM (inactive), the GI50 (HOP-92) was > 10 µM (inactive) and the GI50 (Hs-578T) was > 10 µM (inactive). For the same molecule, the GI50 (K562) was > 10 µM (inactive), the GI50 (LOX IMVI) was > 10 µM (inactive) and the GI50 (Malme-3M) was > 10 µM (inactive). For the same molecule, the GI50 (NCI-H226) was > 10 µM (inactive), the GI50 (NCI-H460) was > 10 µM (inactive) and the GI50 (SF-295) was > 10 µM (inactive). The GI50 (SK-MEL-2) was > 10 µM (inactive), the GI50 (SNB-75) was > 10 µM (inactive) and the GI50 (SW-620) was > 10 µM (inactive). The GI50 (UACC-62) was > 10 µM (inactive) and the GI50 (UO-31) was > 10 µM (inactive).
`O=C1/C(=C/c2ccc(Cl)cc2)CCCc2ccccc21` was tested, and the GI50 (786-0) was 17.3 µM (inactive), the GI50 (CAKI-1) was 39.4 µM (inactive) and the GI50 (COLO 205) was 20.6 µM (inactive). The GI50 (DU-145) was 23.1 µM (inactive), the GI50 (HCT-15) was 14 µM and the GI50 (HL-60) was 13.7 µM (inactive). For the same molecule, the GI50 (HOP-62) was 24.5 µM (inactive), the GI50 (HOP-92) was 21.5 µM (inactive) and the GI50 (Hs-578T) was 11.7 µM (inactive). The GI50 (K562) was 3.24 µM (inactive), the GI50 (LOX IMVI) was 17.3 µM (inactive) and the GI50 (Malme-3M) was 13.6 µM (inactive). The GI50 (NCI-H226) was 16.4 µM (inactive), the GI50 (NCI-H460) was 17.7 µM (inactive) and the GI50 (SF-295) was 16.9 µM (inactive). For the same molecule, the GI50 (SK-MEL-2) was 14.7 µM (inactive), the GI50 (SNB-75) was 30.3 µM (inactive) and the GI50 (SW-620) was 15.4 µM (inactive). For the same molecule, the GI50 (UACC-62) was 14.5 µM (inactive) and the GI50 (UO-31) was 18.3 µM (inactive).
In the case of `COc1ccc(-c2oc3cc(O)c(OC)c(O)c3c(=O)c2O)cc1` [BETULETOL], the GI50 (786-0) is reported as 6.08 µM (inactive), the GI50 (CAKI-1) is reported as 6.03 µM (inactive) and the GI50 (COLO 205) is reported as 23.7 µM (inactive). The GI50 (DU-145) was 2.36 µM (inactive), the GI50 (HCT-15) was 4.84 µM and the GI50 (HL-60) was 2.9 µM (inactive). The GI50 (HOP-62) was 4.73 µM (inactive), the GI50 (HOP-92) was 6.7 µM (inactive) and the GI50 (Hs-578T) was 15.2 µM (inactive). For the same molecule, the GI50 (K562) was 10.9 µM (inactive), the GI50 (LOX IMVI) was 6.19 µM (inactive) and the GI50 (Malme-3M) was 10.5 µM (inactive). For the same molecule, the GI50 (NCI-H226) was 5.19 µM (inactive), the GI50 (NCI-H460) was 1.74 µM (inactive) and the GI50 (SF-295) was 6.08 µM (inactive). The GI50 (SK-MEL-2) was > 51.8 µM (inactive), the GI50 (SNB-75) was 10.4 µM (inactive) and the GI50 (SW-620) was 20.5 µM (inactive). For the same molecule, the GI50 (UACC-62) was 10.3 µM (inactive) and the GI50 (UO-31) was 6.46 µM (inactive).

Reference: ChEMBL document CHEMBL1201862, “PubChem BioAssay data set” (2004)
